From patent US10159670B2, “Methods of diagnosing and treating motor neuron diseases and other cellular stress-related diseases” (priority 2012, dated 2018) come the findings set out here.

Structures are written as SMILES.

The subject of this test is NSC-34 cells. Put plainly: Stress-induced change of pre-miRNA processing in NSC-34 cells (qPCR). Particulars: 1 hr, 0.5 mM. It is filed as cell-based. As to the method:
(FIG. 7A) miRNA expression level analysis in the motor neuron cell line NSC-34, treated with 6.25 nM Thapsigargin for 24 hrs, relative to cells treated with carrier alone (DMSO). Shown are average and s.d. of qPCR analyses of 3 independent experiments. Pre-miRNAs (light grey, normalized to Gapdh) and miRNAs (dark grey, normalized to Snord68). (FIG. 7B) mRNA levels encoding for proteins involved in the canonical stress response, normalized to the expression of beta-actin. (FIG. 7C) miRNA expression level analysis in mouse embryonic motor neurons, treated with 5 nM Thapsigargin for 72 hrs, relative to cells treated with carrier alone (DMSO). Shown are average and s.d. of qPCR analyses of three independent experiments. Pre-miRNAs (light grey, normalized to Gapdh and beta actin) and miRNAs (dark grey, normalized to Snord70). (FIG. 7D) mRNA markers of the canonical stress response, normalized to the expression of beta-actin. miRNA expression level analysis in NSC-34 cells, treated with Paraquat (PQ) (1 mM, 12 hrs, FIG. 7E) and sodium arsenite (0.5 mM, 60 min, FIG. 7F). pre-miRNA normalized to beta-actin mRNA (FIGS. 7E-F) and miRNAs to 5S (FIG. 7E) or to U6 and 5S (FIG. 7F). (FIGS. 7G-I) miRNA expression level analysis in mouse embryonic Wild-type fibroblasts (light grey) or phospho-mutant eIF2a S51A cells (black) treated with Thapsigargin (5 nM, 72 hrs) relative to carrier alone. Pre-miRNA (FIG. 7G) and mature miRNA (FIG. 7H) levels normalized to Gapdh and Snord68, respectively. (FIG. 7I) ATF4, which is induced by phosphorylation of eIF2a, was not induced in phospho-mutant eIF2a S51A cells. Significance of p-values from ANOVA tests is indicated by *p<0.05; **p<0.01. (FIGS. 7J-K) Western-Blot analysis of lysates from untreated NSC-34 cells (control) or cells treated with sodium arsenite (0.5 mM, 60 min). Phospho-specific immunodetection of eIF2a S51 phosphorylation (peIF2a) and total eIF2a levels (FIG. 7J), Dicer and Ago2 levels (FIG. 7K). (FIG. 7L) miRNA expression level analysis in mouse embryonic fibroblasts treated with Puromycin (1 μg/ml, 24 hrs), relative to cells treated with carrier alone (water). Pre-miRNAs (light grey, normalized to Gapdh) and miRNAs (dark grey, normalized to Snord68).
RNA was extracted using Tri reagent (Molecular Research Center Inc.) or Qiazol with consecutive use of the miRNeasy Mini Kit (Qiagen). Pre-miRNA and miRNA reverse transcription was performed using miScript Kits No. I & II (Qiagen). Quantitative analysis of miRNA and pre-miRNA expression performed in more than 3 independent biological repeats and additionally in technical duplicates with StepOnePlus quantitative Real-Time PCR System and 2-sided ANOVA-test performed with DataAssist Software (Life technologies Inc.). Next-generation sequencing of mouse precursor miRNAs and mature miRNAs was performed on two independent experimental repeats, as described in Newman et al. [Newman et al. (2011) RNA 17(10): 1795-1803]. miRNAs were normalized to spiked-in controls and pre-miRNAs were normalized to Snord72 and Snord95.
Stress and cytoplasmic stress granules (SGs) emerge as major pathogenic mechanisms of ALS [Kim et al. (2014) Nat Genet 46(2): 152-160]. Stress pathways are thought to control miRNA activity [Etude and Hornstein, EMBO J. (2014) July 1; 33(13):1428-37], but the idea that cellular stress might broadly regulate miRNA biogenesis was not yet tested. This hypothesis was tested herein by measurement of the relative expression levels of mature miRNAs and their precursors, pre-miRNAs, which provides a proxy for the efficacy of Dicer complex activity. […] Two other chemicals were tested that drive oxidative stress, namely Paraquat (PQ, 12 hrs, 1 mM) and sodium arsenite (1 hr, 0.5 mM). […] Therefore, several different cellular stress pathways negatively regulate miRNA biogenesis.
For orientation: In qPCR the cycle at which signal appears reflects the starting amount.

For the compound `O=[As]O` [sodium arsenite], the “mature miRNAs” value was “down-regulation of mature miRNAs” and the pre-miRNA levels result is “up-regulation of pre-miRNA levels”.
